Results taken from publication PMC8812549 (Journal of medicinal chemistry, 2021).

Assay: Parallel artificial membrane permeability assay
Assay type: in vitro ADME
Conditions: passive permeability, pH 7.4

PAMPA	Structure (SMILES)
265 1e^−6 cm/s	Cc1cccc(C2CC(N(Cc3ccc(Br)c(Cl)c3)C3CCNCC3)C2)c1 (stereo not drawn) [compound 60]
1909 1e^−6 cm/s	CC(=O)N1CCC(N(Cc2ccc(Br)c(Cl)c2)C2CC(c3ccc(C)cc3)C2)CC1 (stereo not drawn) [compound 67]
818.04 1e^−6 cm/s	Cc1ccc(C2CC(N(Cc3ccc(Br)c(Cl)c3)C3CCC(N)CC3)C2)cc1 (stereo not drawn) [compound 70]
806 1e^−6 cm/s	Cc1ccc(C2CC(N(Cc3ccc(Br)c(Cl)c3)C3CCNCC3)C2)cc1 (stereo not drawn) [compound 56, N-(4-Bromo-3-chlorobenzyl)-N-(3-(p-tolyl)cyclobutyl)piperidin-4-amine]
122.99 1e^−6 cm/s	Cc1ccc(C2CC(N(Cc3ccc(Br)c(Cl)c3)C3CC4CNC3C4)C2)cc1 (stereo not drawn) [compound 74]
274.27 1e^−6 cm/s	Cc1ccc(C2CC(N(Cc3ccc(Br)c(Cl)c3)C3CCN(C)CC3)C2)cc1 (stereo not drawn) [compound 68]
14 1e^−6 cm/s	Clc1cc(CN(C2CCNCC2)C2CC(c3cccc(Br)c3)C2)ccc1Br (stereo not drawn) [compound 62]
665.84 1e^−6 cm/s	Cc1ccc(C2CC(N(Cc3ccc(Br)c(Cl)c3)C3CCCNCC3)C2)cc1 (stereo not drawn) [compound 72]
<23.1 1e^−6 cm/s	Cc1ccc(C2CC(N(Cc3ccc(Br)c(Cl)c3)C3CCN(C(C)C)CC3)C2)cc1 (stereo not drawn) [compound 69]
398 1e^−6 cm/s	Fc1ccc(C2CC(N(Cc3ccc(Br)c(Cl)c3)C3CCNCC3)C2)cc1 (stereo not drawn) [compound 59]
<6.4 1e^−6 cm/s	Cc1ccc(C2CC(N(Cc3ccc(Br)c(Cl)c3)C3CCOCC3)C2)cc1 (stereo not drawn) [compound 66]

Structure (SMILES)	PAMPA
Clc1cc(CN(C2CCNCC2)C2CC(c3ccc(Br)cc3)C2)ccc1Br (stereo not drawn) [compound 58, N-(4-Bromo-3-chlorobenzyl)-N-(3-(4-bromophenyl)cyclobutyl)piperidin-4-amine]	32 1e^−6 cm/s

Assay: not given
Conditions: mice, 1 mg/kg, di-HCl salt; liver

Cmax liver [µM]	Structure (SMILES)
4.13	Cc1ccc([C@H]2C[C@H](N(Cc3ccc(Br)c(Cl)c3)C3CCNCC3)C2)cc1 [77b]

Same assay, conditions: mice, 10 mg/kg IP, 24 hours; posture, body temperature, respiratory rate

Structure (SMILES)	unusual behavior or acute toxicity
Clc1cc(CN(C2CCNCC2)C2CC(c3ccc(Br)cc3)C2)ccc1Br (stereo not drawn) [compound 58, N-(4-Bromo-3-chlorobenzyl)-N-(3-(4-bromophenyl)cyclobutyl)piperidin-4-amine]	No unusual behavior or acute toxicity

Same assay, conditions: mice, 10 mg/kg IP, oxalate salt; liver

Structure (SMILES)	Cmax liver [µM]
Clc1cc(CN(C2CCNCC2)C2CC(c3ccc(Br)cc3)C2)ccc1Br (stereo not drawn) [compound 58, N-(4-Bromo-3-chlorobenzyl)-N-(3-(4-bromophenyl)cyclobutyl)piperidin-4-amine]	112
